Several values for one entry are separate records, joined by “and”; a condition that tells them apart may be missing. Equal values may be shown once. Inconclusive results and toxic doses are left out. No stated cut-off is given here; in the data, active means T/C of 150% or more; inactive means T/C below 125%.
Tested on: L1210 leukemia ip in BDF1 mice, survival T/C
Test: NCI In Vivo Anticancer Drug Screen. Data for tumor model L1210 Leukemia (intraperitoneal) in B6D2F1 (BDF1) mice
Conditions: higher = longer survival
Procedure, shortened: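 Transplanted-tumor mice were given test agent; controls received vehicle only. Survival readings from the two groups were divided (treated over control).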

[1] = endpoint: mean survival time, dose: 50.0 mg/kg/injection, schedule: Q04DX002 (ip), vehicle: Klucel (hydroxypropylcellulose) (HPC)
[2] = endpoint: mean survival time, dose: 100.0 mg/kg/injection, schedule: Q01DX001 (ip), vehicle: carboxymethylcellulose (CMC)
[3] = endpoint: mean survival time, dose: 200.0 mg/kg/injection, schedule: Q01DX001 (ip), vehicle: carboxymethylcellulose (CMC)
[4] = endpoint: mean survival time, dose: 400.0 mg/kg/injection, schedule: Q01DX001 (ip), vehicle: carboxymethylcellulose (CMC)
[5] = endpoint: mean survival time, dose: 100.0 mg/kg/injection, schedule: Q01DX009 (ip), vehicle: saline
[6] = endpoint: mean survival time, dose: 200.0 mg/kg/injection, schedule: Q01DX009 (ip), vehicle: saline
[7] = endpoint: mean survival time, dose: 6.25 mg/kg/injection, schedule: Q01DX009 (ip), vehicle: saline with Tween-80
[8] = endpoint: mean survival time, dose: 12.5 mg/kg/injection, schedule: Q01DX009 (ip), vehicle: saline with Tween-80
[9] = endpoint: mean survival time, dose: 100.0 mg/kg/injection, schedule: Q04DX003 (ip), vehicle: saline with Tween-80
[10] = endpoint: mean survival time, dose: 400.0 mg/kg/injection, schedule: Q04DX003 (ip), vehicle: saline with Tween-80

Measured: T/C

CC1=C2CC(C(C)(C)O)CCC2(C)CC/C1=N\N1CCCCC1 (configuration not stated)
inactive: endpoint: mean survival time, dose: 100.0 mg/kg/injection, schedule: Q04DX003 (sc), vehicle: olive oil, sesame oil, peanut oil 100 % of control | endpoint: mean survival time, dose: 200.0 mg/kg/injection, schedule: Q04DX003 (sc), vehicle: olive oil, sesame oil, peanut oil 107 % of control | endpoint: mean survival time, dose: 400.0 mg/kg/injection, schedule: Q04DX003 (sc), vehicle: olive oil, sesame oil, peanut oil 105 % of control

CCCN(C(=O)CCl)c1ccccc1
inactive: endpoint: mean survival time, dose: 12.5 mg/kg/injection, schedule: Q04DX002 (ip), vehicle: Klucel (hydroxypropylcellulose) (HPC) 122 % of control | endpoint: mean survival time, dose: 25.0 mg/kg/injection, schedule: Q04DX002 (ip), vehicle: Klucel (hydroxypropylcellulose) (HPC) 94 % of control | [1] 105 % of control

CN(C)S(=O)(=O)c1ccc(CC(=O)c2ccccc2)cc1
inactive: [2] 115 % of control | [3] 98 % of control | [4] 96 % of control

CSC(N)=Nc1ccc(C(=O)O)cc1
inactive: endpoint: mean survival time, dose: 100.0 mg/kg/injection, schedule: Q01DX009 (ip), vehicle: saline with Tween-80 105 % of control | endpoint: mean survival time, dose: 200.0 mg/kg/injection, schedule: Q01DX009 (ip), vehicle: saline with Tween-80 112 % of control | endpoint: mean survival time, dose: 400.0 mg/kg/injection, schedule: Q01DX009 (ip), vehicle: saline with Tween-80 97 % of control

CC(=O)NCCCCCC(=O)Nc1ccc(Cl)c(Cl)c1
inactive: [2] 94 % of control | [3] 92 % of control | [4] 92 % of control

Cc1ccc(-n2cccc2)cc1
inactive: [1] 90 % of control | endpoint: mean survival time, dose: 100.0 mg/kg/injection, schedule: Q04DX002 (ip), vehicle: Klucel (hydroxypropylcellulose) (HPC) 93 % of control and 90 % of control | endpoint: mean survival time, dose: 200.0 mg/kg/injection, schedule: Q04DX002 (ip), vehicle: Klucel (hydroxypropylcellulose) (HPC) 90 % of control | endpoint: mean survival time, dose: 400.0 mg/kg/injection, schedule: Q04DX002 (ip), vehicle: Klucel (hydroxypropylcellulose) (HPC) 106 % of control

O=C(O)/C=C/C(=O)Nc1ccccc1-n1cccc1
inactive: [5] 106 % of control | [6] 97 % of control

COc1cc(C(=O)N(CCCl)N=O)cc(OC)c1OC
inactive: endpoint: mean survival time, dose: 1.56 mg/kg/injection, schedule: Q01DX009 (ip), vehicle: saline with Tween-80 100 % of control | endpoint: mean survival time, dose: 3.12 mg/kg/injection, schedule: Q01DX009 (ip), vehicle: saline with Tween-80 100 % of control and 107 % of control | [7] 100 % of control and 104 % of control | [8] 104 % of control | endpoint: mean survival time, dose: 25.0 mg/kg/injection, schedule: Q04DX003 (ip), vehicle: saline with Tween-80 102 % of control | endpoint: mean survival time, dose: 50.0 mg/kg/injection, schedule: Q04DX003 (ip), vehicle: saline with Tween-80 89 % of control | [9] 102 % of control and 86 % of control

Nc1nnc(Sc2n[nH]c(=O)[nH]c2=O)s1
inactive: [2] 98 % of control | [3] 102 % of control | [4] 105 % of control

CCN(C(=O)COc1ccc(Cl)cc1)c1ccccc1C
inactive: endpoint: mean survival time, dose: 100.0 mg/kg/injection, schedule: Q01DX009 (ip), vehicle: Klucel (hydroxypropylcellulose) (HPC) 102 % of control | endpoint: mean survival time, dose: 100.0 mg/kg/injection, schedule: Q04DX003 (ip), vehicle: Klucel (hydroxypropylcellulose) (HPC) 101 % of control | endpoint: mean survival time, dose: 200.0 mg/kg/injection, schedule: Q01DX009 (ip), vehicle: Klucel (hydroxypropylcellulose) (HPC) 107 % of control | endpoint: mean survival time, dose: 200.0 mg/kg/injection, schedule: Q04DX003 (ip), vehicle: Klucel (hydroxypropylcellulose) (HPC) 97 % of control | endpoint: mean survival time, dose: 400.0 mg/kg/injection, schedule: Q01DX009 (ip), vehicle: Klucel (hydroxypropylcellulose) (HPC) 116 % of control | endpoint: mean survival time, dose: 400.0 mg/kg/injection, schedule: Q04DX003 (ip), vehicle: Klucel (hydroxypropylcellulose) (HPC) 98 % of control

CCCCCCCCCCCCCCCCCC[Se][Se]CCCCCCCCCCCCCCCCCC
inactive: [7] 94 % of control | [8] 93 % of control | endpoint: mean survival time, dose: 25.0 mg/kg/injection, schedule: Q01DX009 (ip), vehicle: saline with Tween-80 98 % of control and 89 % of control | [9] 87 % of control | [10] 86 % of control

CNC(=O)Cc1ccc2cc(OC)c(OC)cc2c1
inactive: [9] 95 % of control | endpoint: mean survival time, dose: 200.0 mg/kg/injection, schedule: Q04DX003 (ip), vehicle: saline with Tween-80 101 % of control | [10] 91 % of control

CCOC(N)=O
inactive: endpoint: mean survival time, dose: 27.0 mg/kg/injection, schedule: Q03HX024 (ip), vehicle: saline 97 % of control | endpoint: mean survival time, dose: 40.0 mg/kg/injection, schedule: Q03HX024 (ip), vehicle: saline 110 % of control | endpoint: mean survival time, dose: 60.0 mg/kg/injection, schedule: Q03HX024 (ip), vehicle: saline 95 % of control | endpoint: mean survival time, dose: 62.6 mg/kg/injection, schedule: Q01DX Z (ip), vehicle: carboxymethylcellulose (CMC) 106 % of control | endpoint: mean survival time, dose: 90.0 mg/kg/injection, schedule: Q03HX024 (ip), vehicle: saline 101 % of control | [5] 102 % of control | endpoint: mean survival time, dose: 100.0 mg/kg/injection, schedule: Q04DX003 (ip), vehicle: saline 95 % of control | endpoint: mean survival time, dose: 120.0 mg/kg/injection, schedule: Q01DX009 (ip), vehicle: saline 98 % of control | endpoint: mean survival time, dose: 125.0 mg/kg/injection, schedule: Q01DX010 (ip), vehicle: saline 110 % of control and 87 % of control | endpoint: mean survival time, dose: 125.0 mg/kg/injection, schedule: Q01DX Z (ip), vehicle: saline 115 % of control | endpoint: mean survival time, dose: 125.25 mg/kg/injection, schedule: Q01DX Z (ip), vehicle: carboxymethylcellulose (CMC) 101 % of control | endpoint: mean survival time, dose: 135.0 mg/kg/injection, schedule: Q03HX024 (ip), vehicle: saline 110 % of control | endpoint: mean survival time, dose: 180.0 mg/kg/injection, schedule: Q01DX009 (ip), vehicle: saline 102 % of control | endpoint: mean survival time, dose: 188.0 mg/kg/injection, schedule: Q01DX Z (ip), vehicle: saline 100 % of control | [6] 104 % of control | endpoint: mean survival time, dose: 200.0 mg/kg/injection, schedule: Q04DX003 (ip), vehicle: saline 101 % of control | endpoint: mean survival time, dose: 250.0 mg/kg/injection, schedule: Q01DX010 (ip), vehicle: saline 111 % of control and 112 % of control | endpoint: mean survival time, dose: 250.0 mg/kg/injection, schedule: Q01DX Z (ip), vehicle: saline 94 % of control | endpoint: mean survival time, dose: 250.5 mg/kg/injection, schedule: Q01DX Z (ip), vehicle: carboxymethylcellulose (CMC) 106 % of control | endpoint: mean survival time, dose: 266.0 mg/kg/injection, schedule: Q01DX001 (ip), vehicle: saline 100 % of control | endpoint: mean survival time, dose: 270.0 mg/kg/injection, schedule: Q01DX009 (ip), vehicle: saline 108 % of control | endpoint: mean survival time, dose: 280.0 mg/kg/injection, schedule: Q02DX010 (ip), vehicle: carboxymethylcellulose (CMC) 109 % of control | endpoint: mean survival time, dose: 375.0 mg/kg/injection, schedule: Q01DX Z (ip), vehicle: saline 110 % of control | endpoint: mean survival time, dose: 400.0 mg/kg/injection, schedule: Q01DX001 (ip), vehicle: saline 119 % of control | endpoint: mean survival time, dose: 400.0 mg/kg/injection, schedule: Q01DX009 (ip), vehicle: saline 107 % of control and 110 % of control | endpoint: mean survival time, dose: 400.0 mg/kg/injection, schedule: Q04DX003 (ip), vehicle: saline 100 % of control | endpoint: mean survival time, dose: 500.0 mg/kg/injection, schedule: Q01DX010 (ip), vehicle: saline 123 % of control | endpoint: mean survival time, dose: 500.0 mg/kg/injection, schedule: Q01DX Z (ip), vehicle: saline 105 % of control | endpoint: mean survival time, dose: 501.0 mg/kg/injection, schedule: Q01DX Z (ip), vehicle: carboxymethylcellulose (CMC) 108 % of control | endpoint: mean survival time, dose: 600.0 mg/kg/injection, schedule: Q01DX001 (ip), vehicle: saline 121 % of control | endpoint: mean survival time, dose: 600.0 mg/kg/injection, schedule: Q01DX009 (ip), vehicle: saline 98 % of control | endpoint: mean survival time, dose: 750.0 mg/kg/injection, schedule: Q01DX Z (ip), vehicle: saline 103 % of control | endpoint: mean survival time, dose: 1000.0 mg/kg/injection, schedule: Q01DX010 (ip), vehicle: saline 94 % of control | endpoint: mean survival time, dose: 1000.0 mg/kg/injection, schedule: Q01DX Z (ip), vehicle: saline 105 % of control | endpoint: mean survival time, dose: 1074.0 mg/kg/injection, schedule: Q01DX001 (ip), vehicle: saline 115 % of control | endpoint: median survival time, dose: 125.0 mg/kg/injection, schedule: Q01DX009 (ip), vehicle: saline 100 % of control | endpoint: median survival time, dose: 250.0 mg/kg/injection, schedule: Q01DX009 (ip), vehicle: saline 100 % of control | endpoint: median survival time, dose: 500.0 mg/kg/injection, schedule: Q01DX009 (ip), vehicle: saline 100 % of control and 110 % of control | endpoint: median survival time, dose: 1000.0 mg/kg/injection, schedule: Q01DX009 (ip), vehicle: saline 87 % of control

CC(C)(C)C(=O)Nc1n[nH]c(C#N)c1C#N
inactive: endpoint: mean survival time, dose: 50.0 mg/kg/injection, schedule: Q04DX002 (ip), vehicle: other 95 % of control | endpoint: mean survival time, dose: 100.0 mg/kg/injection, schedule: Q04DX002 (ip), vehicle: other 106 % of control | endpoint: mean survival time, dose: 200.0 mg/kg/injection, schedule: Q04DX002 (ip), vehicle: other 113 % of control

From PubChem BioAssay AID248 (DTP/NCI, 2004)
